Experimental data: PubChem BioAssay AID330 (DTP/NCI, 2004)
Values joined by “and” are separate entries in the source; they are usually repeats but may differ in a detail not shown here. Equal entries are not always repeated. Toxic doses and inconclusive results are not listed. How the source made its calls: active means survival T/C of 150% or more; inactive means T/C below 125% in these data.

Tested on: P388 leukemia ip, CD2F1 mice, survival T/C
Experiment: NCI In Vivo Anticancer Drug Screen. Data for tumor model P388 Leukemia (intraperitoneal) in CD2F1 (CDF1) mice
Conditions: endpoint: median survival time, higher = longer survival
Summary of the method: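 Mice carrying the transplanted tumor received test compound or vehicle. Survival was recorded in each group, and the value is the treated-group measurement divided by that of the vehicle-treated control group.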

[1] = dose: 12.5 mg/kg/injection, schedule: Q01DX009 (ip), vehicle: water
[2] = dose: 25.0 mg/kg/injection, schedule: Q01DX009 (ip), vehicle: water
[3] = dose: 50.0 mg/kg/injection, schedule: Q01DX009 (ip), vehicle: water
[4] = dose: 100.0 mg/kg/injection, schedule: Q01DX009 (ip), vehicle: water
[5] = dose: 200.0 mg/kg/injection, schedule: Q01DX009 (ip), vehicle: water
[6] = dose: 50.0 mg/kg/injection, schedule: Q01DX009 (ip), vehicle: Klucel (hydroxypropylcellulose) (HPC)
[7] = dose: 100.0 mg/kg/injection, schedule: Q01DX009 (ip), vehicle: Klucel (hydroxypropylcellulose) (HPC)
[8] = dose: 200.0 mg/kg/injection, schedule: Q01DX009 (ip), vehicle: Klucel (hydroxypropylcellulose) (HPC)
[9] = dose: 6.25 mg/kg/injection, schedule: Q01DX009 (ip), vehicle: saline with Tween-80
[10] = dose: 25.0 mg/kg/injection, schedule: Q01DX009 (ip), vehicle: saline with Tween-80
[11] = dose: 200.0 mg/kg/injection, schedule: Q01DX009 (ip), vehicle: saline with Tween-80
[12] = dose: 50.0 mg/kg/injection, schedule: Q01DX009 (ip), vehicle: saline with Tween-80
[13] = dose: 100.0 mg/kg/injection, schedule: Q01DX009 (ip), vehicle: saline with Tween-80
[14] = dose: 50.0 mg/kg/injection, schedule: Q01DX005 (ip), vehicle: saline with Tween-80
[15] = dose: 100.0 mg/kg/injection, schedule: Q01DX005 (ip), vehicle: saline with Tween-80
[16] = dose: 50.0 mg/kg/injection, schedule: Q01DX005 (ip), vehicle: saline

Measured: T/C

Oc1ccc[n+](CCCCCC[n+]2cccc(O)c2)c1
inactive: [1] 118 % of control | [2] 105 % of control | [3] 110 % of control | [4] 112 % of control | [5] 102 % of control | dose: 400.0 mg/kg/injection, schedule: Q01DX009 (ip), vehicle: water 102 % of control

CC(=O)OC1C2OC3C=C(C)CCC3(CO)C(C)(C1O)C21CO1 (centres undefined)
inactive: dose: 0.5 mg/kg/injection, schedule: Q01DX009 (ip), vehicle: saline 95 % of control | dose: 1.0 mg/kg/injection, schedule: Q01DX009 (ip), vehicle: saline 96 % of control | dose: 2.0 mg/kg/injection, schedule: Q01DX009 (ip), vehicle: saline 106 % of control | dose: 4.0 mg/kg/injection, schedule: Q01DX009 (ip), vehicle: saline 112 % of control

OCC1OC(OC2C(CO)OC(Sc3ccccc3)C(O)C2O)C(O)C(O)C1O (centres undefined)
inactive: dose: 50.0 mg/kg/injection, schedule: Q01DX005 (ip), vehicle: Klucel (hydroxypropylcellulose) (HPC) 101 % of control | dose: 100.0 mg/kg/injection, schedule: Q01DX005 (ip), vehicle: Klucel (hydroxypropylcellulose) (HPC) 105 % of control | dose: 200.0 mg/kg/injection, schedule: Q01DX005 (ip), vehicle: Klucel (hydroxypropylcellulose) (HPC) 105 % of control

CC(C)(C)C1=CC2(c3ccccn3)C(Cl)C(=O)N2NC(c2ccccn2)=N1 (centres undefined)
inactive: dose: 25.0 mg/kg/injection, schedule: Q01DX009 (ip), vehicle: other 98 % of control | dose: 50.0 mg/kg/injection, schedule: Q01DX009 (ip), vehicle: other 101 % of control | dose: 100.0 mg/kg/injection, schedule: Q01DX009 (ip), vehicle: other 98 % of control | dose: 200.0 mg/kg/injection, schedule: Q01DX009 (ip), vehicle: other 93 % of control

NC(=O)c1nccnc1Cl
inactive: [6] 101 % of control | [7] 100 % of control | [8] 114 % of control

CCOC(=O)c1ccc(NC(=O)Nc2ncccc2C)cc1
inactive: dose: 0.78 mg/kg/injection, schedule: Q01DX009 (ip), vehicle: saline with Tween-80 98 % of control | dose: 1.56 mg/kg/injection, schedule: Q01DX009 (ip), vehicle: saline with Tween-80 103 % of control | [9] 92 % of control | [10] 90 % of control | [11] 89 % of control

CCCc1c(C(=O)O)c(-c2cccc3ccccc23)c(CCC)c2c1-c1cccc3cccc-2c13
inactive: [12] 105 % of control | [13] 102 % of control | [11] 100 % of control

CC(CN1CCCCC1)C(=O)c1ccc(-c2ccccc2)cc1 (centres undefined)
inactive: [10] 100 % of control | [12] 105 % of control | [13] 100 % of control

CCN(CC)CCNc1cccc2c(C)cc(=O)[nH]c12
inactive: [14] 103 % of control | [15] 101 % of control

COc1ccc(N2CCCSC2=S)cc1
inactive: dose: 50.0 mg/kg/injection, schedule: Q01DX005 (ip), vehicle: saline + Tween-80 + alcohol 101 % of control | dose: 100.0 mg/kg/injection, schedule: Q01DX005 (ip), vehicle: saline + Tween-80 + alcohol 101 % of control | dose: 200.0 mg/kg/injection, schedule: Q01DX005 (ip), vehicle: saline + Tween-80 + alcohol 100 % of control

Cc1cc(C)nc(NS(=O)(=O)c2ccc(NC(=O)Nc3ccc([N+](=O)[O-])cc3Cl)cc2)n1
inactive: [6] 94 % of control | [7] 86 % of control

CC(=O)OCCS(CCOC(C)=O)=NS(=O)(=O)c1ccc(C)cc1
inactive: dose: 50.0 mg/kg/injection, schedule: Q01DX009 (ip), vehicle: saline 108 % of control | dose: 100.0 mg/kg/injection, schedule: Q01DX009 (ip), vehicle: saline 108 % of control | dose: 200.0 mg/kg/injection, schedule: Q01DX009 (ip), vehicle: saline 106 % of control

COc1cccc(CN2CCCNCC2)c1
inactive: dose: 6.25 mg/kg/injection, schedule: Q01DX009 (ip), vehicle: water 93 % of control | [1] 93 % of control | [2] 97 % of control | [3] 101 % of control

CCSc1ncc(Br)c(Sc2nc(N)nc3nc[nH]c23)n1
active: dose: 16.5 mg/kg/injection, schedule: Q04DX003 (ip), vehicle: saline with Tween-80 150 % of control | dose: 25.0 mg/kg/injection, schedule: Q04DX003 (ip), vehicle: saline with Tween-80 150 % of control and 159 % of control
inactive: dose: 4.0 mg/kg/injection, schedule: Q04DX003 (ip), vehicle: saline with Tween-80 113 % of control | [9] 122 % of control | [10] 90 % of control | dose: 100.0 mg/kg/injection, schedule: Q04DX003 (ip), vehicle: saline with Tween-80 122 % of control

O=C1c2ccccc2C(=O)N1C(=NC1CCCCC1)c1ccccc1
inactive: dose: 100.0 mg/kg/injection, schedule: Q04DX003 (ip), vehicle: Klucel (hydroxypropylcellulose) (HPC) 104 % of control | dose: 200.0 mg/kg/injection, schedule: Q04DX003 (ip), vehicle: Klucel (hydroxypropylcellulose) (HPC) 101 % of control | dose: 400.0 mg/kg/injection, schedule: Q04DX003 (ip), vehicle: Klucel (hydroxypropylcellulose) (HPC) 109 % of control

[NH2-].[NH2-].[NH2-].[NH2-].[NH2-].[NH2-].[Ni]
inactive: dose: 6.25 mg/kg/injection, schedule: Q01DX001 (ip), vehicle: saline 97 % of control | dose: 12.5 mg/kg/injection, schedule: Q01DX001 (ip), vehicle: saline 100 % of control | dose: 25.0 mg/kg/injection, schedule: Q01DX001 (ip), vehicle: saline 98 % of control

Cn1c(N)c(C(=O)c2cccs2)c(=O)n(C)c1=O
inactive: [6] 96 % of control | [7] 88 % of control | [8] 96 % of control

COc1cc(NCCCNCC(C)(C)C)c2ncccc2c1
inactive: dose: 1.25 mg/kg/injection, schedule: Q01DX009 (ip), vehicle: Klucel (hydroxypropylcellulose) (HPC) 100 % of control | dose: 2.5 mg/kg/injection, schedule: Q01DX009 (ip), vehicle: Klucel (hydroxypropylcellulose) (HPC) 95 % of control | dose: 5.0 mg/kg/injection, schedule: Q01DX009 (ip), vehicle: Klucel (hydroxypropylcellulose) (HPC) 94 % of control | dose: 10.0 mg/kg/injection, schedule: Q01DX009 (ip), vehicle: Klucel (hydroxypropylcellulose) (HPC) 99 % of control

Cc1nc2c(Br)cc(Br)cc2c(=O)n1CC(=O)NNC(N)=S
inactive: [6] 95 % of control | [7] 104 % of control | [8] 101 % of control

Cn1c(=O)c2[nH]c(Cl)nc2n(CCCl)c1=O
inactive: dose: 12.5 mg/kg/injection, schedule: Q01DX009 (ip), vehicle: saline with Tween-80 100 % of control and 88 % of control | [10] 89 % of control and 98 % of control | [12] 102 % of control and 95 % of control | [13] 104 % of control and 109 % of control

CC(=O)NC(CCO)C(N)=O (centres undefined)
inactive: [1] 99 % of control and 100 % of control | [2] 106 % of control | [3] 107 % of control and 120 % of control | [4] 111 % of control and 94 % of control | [5] 100 % of control and 101 % of control

CCN(CC)CCOC(=O)C(C)Oc1c2ccoc2c(OC)c2oc(C)cc(=O)c12 (centres undefined)
inactive: [16] 102 % of control | dose: 100.0 mg/kg/injection, schedule: Q01DX005 (ip), vehicle: saline 106 % of control | dose: 200.0 mg/kg/injection, schedule: Q01DX005 (ip), vehicle: saline 101 % of control

COC(=O)C1(C(=O)OC)C2C=CC(Cl)C21 (centres undefined)
inactive: [6] 96 % of control | [7] 104 % of control | [8] 93 % of control

CCC12OCCN1CC(C)O2 (centres undefined)
inactive: [12] 98 % of control | [13] 111 % of control | [11] 113 % of control | dose: 400.0 mg/kg/injection, schedule: Q01DX009 (ip), vehicle: saline with Tween-80 119 % of control

CC(C)=C(Nc1ccccc1)NC(C)C
inactive: dose: 6.25 mg/kg/injection, schedule: Q01DX005 (ip), vehicle: saline 103 % of control | dose: 12.5 mg/kg/injection, schedule: Q01DX005 (ip), vehicle: saline 103 % of control and 104 % of control | dose: 25.0 mg/kg/injection, schedule: Q01DX005 (ip), vehicle: saline 106 % of control and 120 % of control | [16] 118 % of control

CN(C)c1nc2c(N)ncnc2n1C1OC(CO)C(O)C1O (centres undefined)
inactive: dose: 12.5 mg/kg/injection, schedule: Q01DX005 (ip), vehicle: saline with Tween-80 100 % of control and 106 % of control | dose: 25.0 mg/kg/injection, schedule: Q01DX005 (ip), vehicle: saline with Tween-80 103 % of control and 106 % of control | [14] 112 % of control and 113 % of control | [15] 123 % of control
